Data: paper PMC5855688, “BC-Box Motif-Mediated Neuronal Differentiation of Somatic Stem Cells” (International Journal of Molecular Sciences, 2018)

Assays:
Assay type in all cases: cell-based, rat (neonate Wistar)
[1] = tested on: skin-derived precursors (SKPs); assay: Neurite outgrowth / morphological evaluation of neuronal differentiation
Procedure: (§1) Rodent skin-derived precursor cells (SKPs), which can differentiate to neurons, were used. SKPs were previously isolated from the back dermis of neonate Wistar rats by the authors. These cells were cultured in growth medium composed of DMEM/F12 (1:1; Gibco, Grand Island, NY, USA) containing 2% B27 supplement (Gibco), 20 ng/mL epidermal growth factor (EGF; Upstate Biotechnology, Lake Placid, NY, USA), and 40 ng/mL bFGF (PeproTech EC Ltd., Rocky Hill, NJ, USA) in a humidified incubator at 37 °C with 5% CO2. The floating clusters of cultured cells were centrifuged and dissociated into a single-cell suspension by use of a Pasteur pipette with a flame-polished tip. These single cells were then re-suspended into at a concentration of 50,000 cells/mL for passage or experiments.
(§2) For neuronal differentiation, cells were dissociated into a single-cell suspension by use of a Pasteur pipette and re-suspended into a concentration of 50,000 cells/mL in DMEM/F12 without serum, neurotrophic factors or growth factors. Then, the cells were cultured on poly-L-lysine-coated dishes or cover glasses, and the synthesized peptides at concentrations from 1 to 5 μM were added to the culture medium and delivered into the cells. Three days or more later, the cells were used for morphological, immunocytochemical, immunohistochemical, electrophysiological and immunoprecipitation studies, as well as for Western blot analysis.
Neurite outgrowth with length exceeding the diameter of the neuronal soma is often assessed as a morphological index of neuronal differentiation. After a single-cell suspension was made by pipetting, the cells were cultured in DMEN/F12 medium alone at 37 °C in a 5% CO2 incubator. Thereafter, neurite outgrowth was evaluated with the following 4 levels: +++, for above 50% of the cells showing neurite outgrowth; ++, for 20–50% with neurite outgrowth; +, for 5–19% having neurite outgrowth; and −, for below 5% of the cells with neurite outgrowth.

[2] = tested on: skin-derived precursors (SKPs); assay: Immunocytochemistry of neuronal markers in NDD peptide-treated cells; conditions: Figure 6B
Procedure: as §1, §2
Cultured cells were fixed with 4% paraformaldehyde in PBS (Phosphate buffered saline) for 10 min at room temperature. Cells were incubated for 1 h at room temperature with primary antibodies. Antibodies against anti-MAP2 antibody (Sigma-Aldrich, St. Louis, MO, USA), anti-Neurofilment-H (NFH) antibody (Sigma-Aldrich), anti-NeuN antibody (Merk Millipore, Billerica, MA, USA), anti-GFAP antibody (DAKO, Santa Clara, CA, USA), anti-tyrosine hydroxylase (TH) antibody (Merk Millipore, Billerica, MA, USA), anti-choline acetyl transferase (ChAT) antibody (Abbiotec, San Diego, CA, USA), anti-glutamic acid decaboxylase (GAD) antibody (Enzo Life Sciences, Flamingdale, NY, USA), and anti-rhodopsin antibody (Santa Cruz, San Diego, CA, USA) were used. After incubation with primary antibody, the cells were incubated for 1 h with secondary antibody, either rhodamine-conjugated anti-mouse IgG (Sigma-Aldrich) or FITC-conjugated anti-rabbit IgG (Sigma-Aldrich). Nuclear counterstaining was done with DAPI (Molecular Probes, Eugene, OR, USA) or TO-PRO-3 (Molecular Probes), and observations were made with a fluorescence microscope system (FV300, Olympus, Tokyo, Japan). We counted the number of immuno-positive cells with a given antibody in 4 to 6 random non-overlapping visual fields (50–200 cells per field) in each experiment. At least 2 experiments were performed per condition. The degree of positivity was expressed as the rate of immuno-positive cells to the total number of nuclei stained with DAP1 or TO-PRO-3.

[3] = tested on: skin-derived precursors (SKPs); assay: Western blot analysis of neuronal markers in NDD peptide-treated cells; conditions: Figure 6A; for Expression of TH: tyrosine hydroxylase; for Expression of ChAT: choline acetyltransferase; for Expression of GAD: glutamic acid decarboxylase
Procedure: as §1, §2
Cultured cells were washed 3 times in cold PBS and then scraped into ice-cold PBS. After incubation on ice for 10 min, the cells were lysed with lysis buffer and centrifuged, after which the supernatants were collected. Each sample was separated by SDS-PAGE under reducing conditions and transferred electrophoretically to nitrocellulose filters. Non-specific binding of antibody was blocked by incubation with 5% donkey serum for 1 h. Western blots were probed with anti-MAP2 antibody, anti-NFH antibody, anti-ChAT antibody, anti-GAD antibody, anti-rhodopsin antibody, anti-TH antibody, and anti-elongin C antibody (Santa Cruz, San Diego, CA, USA) followed by horseradish peroxidase-conjugated secondary antibodies. Protein bands were detected by using a chemical luminescence detection system (ECL Plus Western Blotting Reagent Pack, Amersham, Hemel Hempstead, UK). Images were analyzed with LAS-1000 (Fujifilm, Tokyo, Japan), and the density of the bands was determined by using Image Gauge software (Fujifilm).

[4] = BC-box motif plus five C-terminal amino acids peptides, delivered with TAT PTD, 1 to 5 μM
[5] = BC-box motif alone (10-residue) peptides, delivered with TAT PTD, 1 to 5 μM

## YARAAARQARATLQHLCRKTVNGHLD [SOCS3 BC-box motif plus five amino acids]
[1]; [4]
  Neurite Outgrowth Activity: ++ (20–50% with neurite outgrowth)
[2]
  Rate of GAD-positive (GABAnergic neuron-like) cells: high rates of positive cells
[3]
  Expression of TH: moderate

## YARAAARQARA SLKHLCRKAL [WSB2 BC-box motif alone]
[1]; [5]
  Neurite Outgrowth Activity: - (below 5% of the cells with neurite outgrowth)

## YARAAARQARASLQYLCRFVI [SOCS6 BC-box motif alone]
[1]; [5]
  Neurite Outgrowth Activity: - (below 5% of the cells with neurite outgrowth)

## YARAAARQARA SLQYICRAVI [SOCS5 BC-box motif alone]
[1]; [5]
  Neurite Outgrowth Activity: + (5–19% having neurite outgrowth)

## YARAAARQARA TLKERCLQVV [VHL(157–166), pVHL BC-box motif alone, conjugated with PTD]
[1]; [5]
  Neurite Outgrowth Activity: - (below 5% of the cells with neurite outgrowth)
[1]; Figure 2A, rates of cells having neurites, peptides at 1 to 5 μM, VHL157–168 vs VHL(157–171) p < 0.005
  Neurite Outgrowth Activity: scarcely did

## YARAAARQARA PLQELCRQRI [SOCS1 BC-box motif alone]
[1]; [5]
  Neurite Outgrowth Activity: - (below 5% of the cells with neurite outgrowth)

## YARAAARQARASLQHLCRFRI [SOCS7 BC-box motif alone]
[1]; [5]
  Neurite Outgrowth Activity: + (5–19% having neurite outgrowth)

## YARAAARQARASLQYLCRFVIRQYTR [SOCS6 BC-box motif plus five amino acids]
[1]; [4]
  Neurite Outgrowth Activity: ++ (20–50% with neurite outgrowth)
[2]
  Rate of TH-positive (dopaminergic neuron-like) cells: high rates of positive cells
[3]
  Expression of TH: moderate

## YARAAARQARATLLESSARTI [LRR-1 BC-box motif alone]
[1]; [5]
  Neurite Outgrowth Activity: - (below 5% of the cells with neurite outgrowth)

## YARAAARQARASLQHICRTVI [SOCS4 BC-box motif alone]
[1]; [5]
  Neurite Outgrowth Activity: - (below 5% of the cells with neurite outgrowth)

## YARAAARQARASLKHLCRKALRSFLT [WSB2 BC-box motif plus five amino acids]
[1]; [4]
  Neurite Outgrowth Activity: ++ (20–50% with neurite outgrowth)
[2]
  Rate of GAD-positive (GABAnergic neuron-like) cells: high rates of positive cells
  Rate of TH-positive (dopaminergic neuron-like) cells: high rates of positive cells
[3]
  Expression of ChAT: moderate
  Expression of GAD: expressed highly
  Expression of TH: moderate

## YARAAARQARATLQHLCRKTV [SOCS3 BC-box motif alone]
[1]; [5]
  Neurite Outgrowth Activity: - (below 5% of the cells with neurite outgrowth)

## YARAAARQARAPLQELCRQRIVAAVG [SOCS1 BC-box motif plus five amino acids]
[1]; [4]
  Neurite Outgrowth Activity: ++ (20–50% with neurite outgrowth)
[3]
  Expression of ChAT: moderate
  Expression of TH: moderate

## YARAAARQARASLQYICRAVICRCTT [SOCS5 BC-box motif plus five amino acids]
[1]; [4]
  Neurite Outgrowth Activity: +++ (above 50% of the cells showing neurite outgrowth)
[2]
  Rate of TH-positive (dopaminergic neuron-like) cells: high rates of positive cells
  Rate of rhodopsin-positive cells: high rates of positive cells
[3]
  Expression of rhodopsin: highly expressed

## YARAAARQARASLTHLCRLEIRSSIK [ASB3 BC-box motif plus five amino acids]
[2]
  Rate of GAD-positive (GABAnergic neuron-like) cells: high rates of positive cells
  Rate of TH-positive (dopaminergic neuron-like) cells: high rates of positive cells

## YARAAARQARAMPRRAENWDEAEV [VHL(1–13), pVHL fragment conjugated with PTD]
[1]; phase-contrast microscopy, Figure 1E, peptides at 1 to 5 μM
  Morphological change: no morphological change

## YARAAARQARASLQHICRTVICNCTT [SOCS4 BC-box motif plus five amino acids]
[1]; [4]
  Neurite Outgrowth Activity: ++ (20–50% with neurite outgrowth)
[3]
  Expression of rhodopsin: moderate
  Expression of GAD: expressed highly

## YARAAARQARATLQHFCRLAINKCT G [SOCS2 BC-box motif plus five amino acids]
[1]; [4]
  Neurite Outgrowth Activity: + (5–19% having neurite outgrowth)
[3]
  Expression of rhodopsin: moderate
  Expression of GAD: expressed highly

## YARAAARQARATLQHFCRLAI [SOCS2 BC-box motif alone]
[1]; [5]
  Neurite Outgrowth Activity: - (below 5% of the cells with neurite outgrowth)
